Results on 17 compounds are retold here after patent US20060234909A1, “Compositions and methods for increasing drug efficiency” (priority 2003, published 2006).

Primed or numbered codes have the meaning given here. * marks the point of attachment. PEG(11) = PEG(11) linker; PEG(29) = PEG(29) linker; PEG(11)″ = PEG11 linker; 3Am = not defined here; Cbz = O=C(OCc1ccccc1)*; Boc = CC(C)(C)OC(=O)*; VBL = vinblastine

The test system of one data set is HUVEC. Put plainly: Cytotoxicity assay (monolayer), HUVEC. Type of data set: cell-based. The conditions noted are these: ML (monolayer), read-out: HUVEC (EC50 Ave) ML.
The next data set relates to tubulin. Nature of the data set: Fluorescence-based tubulin polymerization assay (MPA; enhancement for paclitaxel, inhibition for vinblastine). In kind it is biochemical. The text has this: Drug-linker constructs may further be screened using functional assays predictive of biological activity. […] Tubulin assembly or inhibition thereof may be monitored by fluorescence using the CytoDYNAMIX Screen™ 10 kit available from Cytoskeleton (1830 S. Acoma St., Denver, Colo.). […] Emission is monitored at 405 nm with excitation at 360 nm. […] Tubulin assembly or inhibition may also be monitored by light scattering which is approximated by the apparent absorption at 350 nm. For paclitaxel drug conjugates BSA is employed to prevent aggregation and glycerol, which is a tubulin polymerization enhancer, is omitted from the kit to increase the signal to noise ratio.
The assay kit (#BK011) was purchased from Cytoskeleton (Denver, Colo.). The assays were carried out according to the manufacturer's instructions, except that 1 mg/ml BSA (Sigma #A3059) was included in all assays. […] Parent drugs and conjugates were tested at 0.75, 1.5, 3 and 10 micromolar final concentration and results represent a comparison of conjugate and parent drug curves obtained from the linear range of the dose responses.
(±SD) represent the average of all tests carried out for all lots of a given compound.

The subject of another data set is HT-29 cells. The conditions noted are these: read-out: HT29 (EC50 Ave) SA; HT29, SA (soft agar).
Data set [1] has as its system Normal human foreskin fibroblasts (HFF). The conditions noted are these: read-out: HFF (EC50 Ave) ML; HFF, ML (monolayer).
The test system of data set [2] is HT-29 colorectal carcinoma. Nature of the data set: Cytotoxicity assay (monolayer), HT-29.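 Also: monolayer cultures tested in triplicate, compound exposure for three days against DMSO vehicle controls, EC50 fitted from dose-response curves and averaged across all tests and lots.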 In kind it is cell-based. The conditions noted are these: HT29, ML (monolayer); read-out: HT29 (EC50 Ave) ML.
Another data set relates to MCF-7 breast carcinoma. Put plainly: Cytotoxicity assay (monolayer), MCF-7.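 Also: cells treated 72 h with 6-8 compound doses versus DMSO vehicle controls, EC50 fitted by 4-parameter dose-response curves, averaged across all tests and lots.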 The note with it: MCF7, ML (monolayer); read-out: MCF7 (EC50 Ave) ML. In kind it is cell-based.
Another data set relates to MCF-7 cells. The conditions noted are these: read-out: MCF7 (EC50 Ave) SA; MCF7, SA (soft agar).
Another data set addresses T1, Human Src (Homo sapiens, UniProt P12931).
T1 construct: purchased Upstate (Charlottesville, Va.) 14-326
Nature of the data set: Src kinase assay (PKLight ATP utilization, substrate phosphorylation as % of parent peptide). In kind it is biochemical. How it is done: Another test may involve monitoring the consumption of ATP. For example, ATP concentrations at time 0 or after 4 hour incubation may be monitored by luciferase reaction (PKLight kit obtained from Cambrex Corporation, One Meadowlands Plaza, East Rutherford, N.J. 07073), which generate a luminescence readout in the presence of ATP. Assays are initiated by mixing a kinase and a peptide in the presence of 40 μM ATP. After 4 hour of incubation at 30° C., PKLight reagent is added and mixed well, and luminescence readout measured. The rate of peptide phosphorylation is then directly related to the rate of decrease in the observed luminescence. Based on the first test, linkers of appropriate lengths and peptides with an effective amount of kinase activity which may be expected to be retained in the drug conjugate may be found.
Human Src (#14-326) and Akt (#14-276) kinases were purchased from Upstate (Charlottesville, Va.). Kinase reactions were carried out in 50 μl kinase reaction cocktail (25 mM Tris-HCl, pH 7.5, 5 μM β-glycerophosphate, 2 mM DTT, 0.1 mM Na3VO4, 10 mM MgCl2, 1 mg/ml BSA, […], 0.5 to 1.0 units enzyme). Substrates (peptide or drug-peptide conjugate in […]) were added (25, 50 and 100 μM) and the reaction was incubated for 2-5 hours at 30° C. PKLight reagent (23 μl) (Cambrex BioSciences, Rockland, Me.) was mixed with […] of the above kinase reaction and ATP utilization relative to no substrate and no ATP controls was determined by measuring luminescence with a SpectraMax Gemini EM plate reader (Molecular Devices, Sunnyvale, Calif.). Peptide substrates for Src and Akt have been described. For examples, see Lou et al. Letters in Peptide Science, 2, 289-296 (1995); Lou et al. Bioorganic & Medicinal Chemistry, 4, 677-682 (1996); Alessi et al. FEBS Letters, 399, 333-338 (1996). Substrate phosphorylation potential was determined from the linear portion of the substrate concentration dose response as a percentage of the activity observed with the parent peptide used for drug conjugation.

Broadly, the EC50 is the concentration needed to bring the measured effect to its halfway point.

Regarding `CC[C@]1(O)C[C@@H]2CN(CCc3c([nH]c4ccccc34)[C@@](C(=O)OC)(c3cc4c(cc3OC)N(C)[C@H]3[C@@](O)(C(=O)NCCCCCCCCN)[C@H](O)[C@]5(CC)C=CCN6CC[C@]43[C@@H]65)C2)C1` [VBL-3Am-ALK(8)-NH2], the EC50 (in the data set with HUVEC; in the data set on HT-29 cells; in data set [1]; in data set [2]; in the data set on MCF-7 breast carcinoma; in the data set on MCF-7 cells) was < 20 nM in each case. Further, the “Ave. MPA Act.” value in the data set with tubulin is given as “B (B=50-80)”.

Take `CC(=O)O[C@@]12CO[C@@H]1C[C@H](O)[C@@]1(C)C(=O)[C@H](O)C3=C(C)[C@@H](OC(=O)[C@H](O)[C@@H](NC(=O)c4ccccc4)c4ccccc4)C[C@@](O)([C@@H](OC(=O)c4ccccc4)[C@H]21)C3(C)C` [10 Deacetyl Taxol]: the EC50 in the data set on HUVEC is < 20 nM; in the data set on HT-29 cells it was < 20 nM; in data set [1] it was < 20 nM; in data set [2] it was < 20 nM; in the data set on MCF-7 breast carcinoma it was 20 to 100 nM; in the data set on MCF-7 cells it was < 20 nM.

Turning to `CC[C@]1(O)C[C@@H]2CN(CCc3c([nH]c4ccccc34)[C@@](C(=O)OC)(c3cc4c(cc3OC)N(C)[C@H]3[C@@](O)(C(=O)NCCCCCCNC(=O)OC(C)(C)C)[C@H](O)[C@]5(CC)C=CCN6CC[C@]43[C@@H]65)C2)C1` [VBL-3Am-ALK(6)-NH(B)], the concentration giving a half-maximal response (EC50) (with HUVEC; in the data set on HT-29 cells; in data set [1]; in data set [2]; in the data set with MCF-7 breast carcinoma; with MCF-7 cells) was < 20 nM in each case. In addition, the “Ave. MPA Act.” value in the data set on tubulin is listed as “A (A<50)”.

“Ac-EYIYGSFR-PEG(13)-10Ca-PXL (N-acetyl, PEG13, paclitaxel conjugate)”: the EC50 (with HUVEC; in data set [1]; in data set [2]; in the data set on MCF-7 breast carcinoma) was > 100 nM throughout. In the data set with Human Src, the “Average src kinase activity” value was “B (B=20-40)”. In the data set on tubulin, the “Ave. MPA Act.” value is “B (B=50-80)”.

On to “CH3O(CH2CH2O)3CH2CH2(C═)YIYGSFH-PEG(11)-3Am-VBL (N-methoxy-PEG acyl; PEG(11); vinblastine conjugate)”, for which the 50% effective concentration (EC50) (in the data set with HUVEC; in data set [1]; in data set [2]; with MCF-7 breast carcinoma) was > 100 nM each time. The “Average src kinase activity” value with Human Src is reported as “C (C>40)”. For the same compound, the “Ave. MPA Act.” value with tubulin is “B (B=50-80)”.

Regarding “H-GIYWHHY-PEG(11)-3Am-VBL (H-GIYWHHY-{PEG(11)-3Am-VBL}; reading uncertain)”, the EC50 (in the data set on HUVEC; in data set [1]; in data set [2]; with MCF-7 breast carcinoma) was > 100 nM in each case. For the same compound, the “Average src kinase activity” value with Human Src was “B (B=20-40)”. In addition, the “Ave. MPA Act.” value in the data set with tubulin was “B (B=50-80)”.

For “Ac-YIYGSFR-PEG(13)-10Ca-PXL (N-acetyl; PEG(13) linker; paclitaxel conjugate)”, the EC50 (in the data set with HUVEC; in data set [1]; in data set [2]; in the data set on MCF-7 breast carcinoma) was > 100 nM each time. For the same compound, the “Average src kinase activity” value with Human Src is “C (C>40)”. In addition, in the data set with tubulin, the “Ave. MPA Act.” value is “B (B=50-80)”.

Consider “Ac-YIFGSFK(BOC)-PEG(11)-3Am-VBL (Ac-YIFGSFK(Boc)-{PEG(11)″-3Am-VBL}; reading uncertain; also: printed as Ac-YIFGSFK(BOC)-PEG(11)-3Am-VBL)”, for which the EC50 (with HUVEC; in data set [1]; in data set [2]; in the data set on MCF-7 breast carcinoma) was > 100 nM in each case. In addition, the “Average src kinase activity” value with Human Src was “B (B=20-40)”. The “Ave. MPA Act.” value with tubulin was “B (B=50-80)”.

CBz-E(Bzl)YIFGSFK(BOC)-PEG(11)-3Am-VBL: the 50% effective concentration (EC50) with HUVEC is > 100 nM; in data set [1] it was > 100 nM; in data set [2], > 100 nM; in the data set on MCF-7 breast carcinoma, < 20 nM. Further, the “Average src kinase activity” value in the data set with Human Src is reported as “A (A<20)”. Further, in the data set with tubulin, the “Ave. MPA Act.” value is on record as “A (A<50)”.

For “H-YIYGSFK-PEG(11)-3Am-VBL (H-YIYGSFK-{PEG(11)-3Am-VBL}; reading uncertain)”, the EC50 was > 100 nM in the data set on HUVEC, 20 to 100 nM in data set [1], > 100 nM in data set [2] and > 100 nM with MCF-7 breast carcinoma. Moreover, in the data set with Human Src, the “Average src kinase activity” value is on record as “C (C>40)”. Further, in the data set with tubulin, the “Ave. MPA Act.” value is “B (B=50-80)”.

Turning to “CBz-YIYGSFK(CBz)-PEG(11)-3Am-VBL (Cbz-YIYGSFK(Cbz)-{PEG(11)-3Am-VBL}; reading uncertain; also: printed as CBz-YIYGSFK(CBz)-PEG(11)-3Am-VBL)”, the EC50 was 20 to 100 nM with HUVEC, 20 to 100 nM in data set [1], > 100 nM in data set [2] and 20 to 100 nM with MCF-7 breast carcinoma. Also, the “Average src kinase activity” value with Human Src is given as “A (A<20)”. Further, the “Ave. MPA Act.” value with tubulin was “B (B=50-80)”.

Regarding “H-YIYGSFK-PEG(29)-3Am-VBL x 2TFA (H-YIYGSFK-{PEG(29)-3Am-VBL}; reading uncertain; also: 2TFA salt)”, the EC50 was > 100 nM in the data set on HUVEC, 20 to 100 nM in data set [1], 20 to 100 nM in data set [2] and < 20 nM with MCF-7 breast carcinoma. In addition, the “Average src kinase activity” value in the data set with Human Src is “A (A<20)”. In the data set on tubulin, the “Ave. MPA Act.” value is “A (A<50)”.

Regarding “BOC-YIYGSFK(BOC)-PEG(11)-3Am-VBL (N-BOC; BOC side chain; PEG(11); vinblastine conjugate)”, the EC50 in the data set with HUVEC is > 100 nM; in data set [1], > 100 nM; in data set [2], 20 to 100 nM; with MCF-7 breast carcinoma it was 20 to 100 nM. In the data set with Human Src, the “Average src kinase activity” value is recorded as “A (A<20)”. Besides, the “Ave. MPA Act.” value with tubulin was “B (B=50-80)”.

In the case of “Ac-YIYGSFH-PEG(11)-3Am-VBL (N-acetyl; PEG(11) linker; vinblastine conjugate)”, the EC50 (with HUVEC; in data set [1]; in data set [2]; in the data set with MCF-7 breast carcinoma) was > 100 nM throughout. Besides, the “Average src kinase activity” value with Human Src is listed as “C (C>40)”. The “Ave. MPA Act.” value with tubulin is “C (C>80)”.

Regarding “CBz-RPRTSSF-PEG(11)-3Am-VBL (N-CBz; PEG(11) linker; vinblastine conjugate)”, the EC50 is < 20 nM in data set [2], < 20 nM in the data set with MCF-7 breast carcinoma and 20 to 100 nM in the data set with MCF-7 cells.

In the case of “CH3O(CH2CH2O)3CH2CH2(C═O)YIYGSFS-PEG(11)-3Am-VBL (N-methoxy-PEG acyl; PEG(11); vinblastine conjugate)”, the EC50 (with HUVEC; in data set [1]; in data set [2]; with MCF-7 breast carcinoma) was > 100 nM in each case. The “Average src kinase activity” value with Human Src is “C (C>40)”. Moreover, in the data set with tubulin, the “Ave. MPA Act.” value is recorded as “C (C>80)”.

In the case of “Ac-YIYGSFS-PEG(11)-3Am-VBL (N-acetyl; PEG(11) linker; vinblastine conjugate)”, the EC50 (in the data set on HUVEC; in data set [1]; in data set [2]; with MCF-7 breast carcinoma) was > 100 nM throughout. Moreover, the “Average src kinase activity” value with Human Src is “C (C>40)”. For the same compound, the “Ave. MPA Act.” value in the data set on tubulin was “B (B=50-80)”.
